Measurements from publication PMC9394307, “Discovery of Putative Dual Inhibitor of Tubulin and EGFR by Phenotypic Approach on LASSBio-1586 Homologs” (Pharmaceuticals, 2022).
“And” between values parts separate entries of the source, which are not always exact repeats. Equal values may be shown once. Read-outs that look alike come from different tables or passages of the source.

What was measured:
HL-60 = test: MTT cell viability assay, HL-60; type: cell-based, human; settings: Homo sapiens, MTT, value (95% CI), read-out: CC50 (µM) (CI) HL-60
Procedure: (§1) The cytotoxic activity of compounds 3–13 was determined based on an MTT assay against different human tumor cell lines, using LASSBio-1586 (2), LASSBio-1735 (3), CA-4 (1) and pelitinib as standards (Table 2). To determine the cytotoxic selectivity index, compounds were also evaluated toward human lymphocytes (Table 3).
(§2) The target compounds were tested (0.0001–100 µM) for cytotoxic activity against selected human cancer cell lines, such as HL-60 (acute promyelocytic leukemia), MCF-7 (mammary adenocarcinoma), PC-3 (prostate adenocarcinoma), H1975 (non-small cell lung cancer—EGFR^L858R+T790M), PC-9 (non-small cell lung cancer—EGFR^L858R) H292 (mucoepidermoid pulmonary carcinoma—EGFR wild type), LoVo (colorectal adenocarcinoma—EGFRwild type) and GM16000 (lymphocyte). All the human cancer cell lines were purchased from Cell Bank of Rio de Janeiro—BCRJ. They were cultured in RPMI 1640 medium with 10% (v/v) FBS, 2 mM glutamine, at 37 °C in a humidified incubator containing 5% CO2.
(§3) The cytotoxicity of the compounds was evaluated by the MTT assay. […] For lymphocytic lines, a density of 0.3 × 10^6 cells/mL was used. Afterwards they were treated with varying concentrations of the target compounds 2–12 (0.0001–100 µM), CA-4 (1) and pelitinib at 37 °C, in triplicate. The medium was incubated with 20 μL of 5 mg/mL MTT solution for 3 h in a humidified incubator containing 5% CO2 [11].
(§4) The purple-colored formazan crystals formed in the wells were dissolved in DMSO and their absorbance was measured at 595 nm with a microplate reader (SpectraMax M5, Molecular Devices).

H1975 = test: MTT cell viability assay, H1975; type: cell-based, human; settings: MTT, value (95% CI), read-out: CC50 (µM) (CI) H1975
Procedure: as §1, §2, §3, §4

H292 = test: MTT cell viability assay, H292; type: cell-based, human; settings: MTT, value (95% CI), read-out: CC50 (µM) (CI) H292
Procedure: as §1, §2, §3, §4

LoVo [1] = test: MTT cell viability assay, LoVo; type: cell-based; settings: Homo sapiens, MTT, 72 h, value (95% CI), read-out: CC50 (µM) (CI) LoVo
Procedure: as §1, §2
(§5) The cytotoxicity of the compounds was evaluated by the MTT assay. The cell lines were cultured in 96 well plates for 72 h with a density of 0.1 × 10^5 cells/mL to 0.7 × 10^5 cells/mL to adherent cell lines. For lymphocytic lines, a density of 0.3 × 10^6 cells/mL was used. Afterwards they were treated with varying concentrations of the target compounds 2–12 (0.0001–100 µM), CA-4 (1) and pelitinib at 37 °C, in triplicate. The medium was incubated with 20 μL of 5 mg/mL MTT solution for 3 h in a humidified incubator containing 5% CO2 [11].
as §4

MCF-7 = test: MTT cell viability assay, MCF-7; type: cell-based, human; settings: Homo sapiens, MCF7, 72 h, MTT, 72 h; value (95% CI); read-out: CC50 (µM) (CI) MCF-7
Procedure: as §1, §2, §5, §4

PC-3 = test: MTT cell viability assay, PC-3; type: cell-based; settings: Homo sapiens, PC-3; MTT, 72 h; value (95% CI); read-out: CC50 (µM) (CI) PC-3
Procedure: as §1, §2, §5, §4

PC-9 = test: MTT cell viability assay, PC-9; type: cell-based, human; settings: MTT, value (95% CI), read-out: CC50 (µM) (CI) PC-9
Procedure: as §1, §2, §3, §4

[2] = MTT cell viability assay, GM16000 lymphocytes; type: cell-based; settings: GM16000 lymphocyte cells (non-tumor), human lymphocytes, value (95% CI)
Procedure: as §1
To establish the cytotoxic selective index (SI) of LASSBio-1586 homologs, they were studied on human lymphocyte cell lines (GM16000), using the MTT assay. The SI was calculated by the ratio between the CC50 on tumor and non-tumor cell lines. Although there is no consensus, values of SI ≥ 10 is considered satisfactory to assign safety to a new cytotoxic agent. This value means that the compound is more than ten times more cytotoxic to the tumor cell line than to normal cell line.
as §2, §5, §4

LoVo [3] = test: MTT cell viability assay, LoVo; type: cell-based; settings: Homo sapiens, 48 h, value (95% CI)
[4] = MTT cell viability assay, GM16000 lymphocytes; type: cell-based; settings: GM16000 lymphocyte cells (non-tumor), human lymphocytes, value (95% CI); remark: listed apart in the source
H1975 cells = test: Immunofluorescence of β-tubulin / microtubules; type: cell-based, human; settings: H1975, 48 h; CA-4 0.3 µM, vincristine 0.5 µM, taxol 0.1 µM, LASSBio-1586 10 µM, LASSBio-1735 0.5 µM, LASSBio-2070 4.5 µM, LASSBio-2074 20 µM
Procedure: Antitubulin agents have been broadly classified into destabilizing or stabilizing agents, based on their interference with the dynamic balance of polymerization or depolymerization of microtubules. […] CA-4 (1, 0.3 µM), vincristine (0.5 µM) and taxol (0.1 µM) were used as standard controls.
After incubation, cells were rinsed with PBS and fixed with 4% paraformaldehyde in PBS for 10 min at room temperature. They were then permeabilized with 0.5% Triton-X 100 in PBS 3 times for 10 min. The same solution was used for all subsequent washing steps. Cells were incubated with an anti-beta-tubulin antibody for 1 h at 37 °C. After incubation, cells were washed for 30 min and incubated with Alexa Fluor® 488, conjugated secondary antibody for 1 h at 37 °C, and nuclei were labeled with DAPI (0.1 mg/mL in 0.9% NaCl).
Live cultured cells grown in coverslips were mounted in Prolong Gold solution (Molecular Probes, USA) and were imaged on a Leica TCS SPE confocal microscope (Leica Microsystems, Germany) using 63x 1.3 N.A. oil immersion and the images acquired by the LAS X software. Cell morphology, focusing on the microtubules was analyzed, qualitatively, using the public domain NIH ImageJ Program (developed at the National Institutes of the USA Health and available on the internet at http://imagej.nih.gov/ij/ (accessed on 1 September 2021).

[5] = Homo sapiens, NCI-H1975, 48 h, 48 h
[6] = Homo sapiens, NCI-H1975, 72 h, 72 h
[7] = Homo sapiens, NCI-H292, 48 h, 48 h
[8] = Homo sapiens, NCI-H292, 72 h, 72 h

melting point	Structure (SMILES)	CC50 (HL-60; HL-60, 48 h, 48 h)	CC50 (HL-60; HL-60, 72 h, 72 h)	CC50 (H1975; [5])	CC50 (H1975; [6])	CC50 (H292; [7])	CC50 (H292; [8])	CC50 (LoVo [1])	CC50 (MCF-7)	CC50 (PC-3)	CC50 (PC-9; Homo sapiens, PC-9, 48 h, 48 h)	CC50 (PC-9; Homo sapiens, PC-9, 72 h, 72 h)	CC50 at 72 h [2]	CC50 (LoVo [3])	CC50 at 48 h [4]	CC50 (H1975; 48 h)	CC50 (H292; 48 h)	CC50 (PC-9; 48 h)	cell morphology after treatment (H1975 cells)	effect on microtubules (stabilizing / destabilizing profile) (H1975 cells)
64.47 °C and 64 to 65 °C	C=CCN(/N=C/c1ccccc1)C(=O)c1cc(OC)c(OC)c(OC)c1 [LASSBio-2069 (8), (E)-N-allyl-N’-benzylidene-3,4,5-trimethoxybenzohydrazide]	0.526 µM	1.35 µM	1.65 µM	3.74 µM	0.154 µM	0.778 µM	0.298 µM	1.6 µM	0.462 µM	0.276 µM	0.387 µM	0.83 µM	0.808 µM	0.095 µM					
83.94 °C and 83 to 84 °C	CCN(/N=C/c1ccccc1)C(=O)c1cc(OC)c(OC)c(OC)c1 [LASSBio-2071 (4), (E)-N’-benzylidene-N-ethyl-3,4,5-trimethoxybenzohydrazide]	6.03 µM	0.231 µM		4.86 µM		2.55 µM	0.301 µM	1.24 µM	1.66 µM		0.384 µM	5.13 µM	3.05 µM	2 µM	4.91 µM	0.3 µM	0.881 µM		
133.91 °C and 133 to 134 °C	C#CCN(/N=C/c1ccccc1)C(=O)c1cc(OC)c(OC)c(OC)c1 [LASSBio-2072 (9), (E)-N’-benzylidene-3,4,5-trimethoxy-N-(prop-2-yn-1-yl)benzohydrazide]	5.85 µM	0.158 µM	5.34 µM	3.98 µM	0.45 µM	3.14 µM	0.399 µM	2.32 µM	2.25 µM	1.27 µM	0.46 µM	0.612 µM	3.05 µM	2.52 µM					
	CCCN(/N=C/c1ccccc1)C(=O)c1cc(OC)c(OC)c(OC)c1 [LASSBio-2118 (5), (E)-N’-benzylidene-3,4,5-trimethoxy-N-propylbenzohydrazide]	1.46 µM	0.301 µM	1.12 µM	0.775 µM	0.181 µM	3.72 µM	0.031 µM	0.144 µM	0.432 µM	0.263 µM	0.136 µM	0.843 µM	0.74 µM	1.1 µM					
	CCCCN(/N=C/c1ccccc1)C(=O)c1cc(OC)c(OC)c(OC)c1 [LASSBio-2121 (6), (E)-N’-benzylidene-N-butyl-3,4,5-trimethoxybenzohydrazide]	2.61 µM	2.17 µM	1.71 µM	2.94 µM	0.215 µM	9.55 µM	0.5 µM	0.5 µM	0.696 µM	0.327 µM	0.096 µM	0.961 µM	2 µM	1.2 µM					
	COc1cc(C(=O)N(CCN2CCOCC2)/N=C/c2ccccc2)cc(OC)c1OC [LASSBio-2122 (12), (E)-N’-benzylidene-3,4,5-trimethoxy-N-(2-morpholinoethyl)benzohydrazide]	5.09 µM	4.15 µM	6.37 µM	2.48 µM	0.412 µM	2.79 µM	0.421 µM	4.11 µM	2.4 µM	1.5 µM	0.871 µM	5.65 µM	1.05 µM	3.8 µM					
	CCOc1cc2ncc(C#N)c(Nc3ccc(F)c(Cl)c3)c2cc1NC(=O)/C=C/CN(C)C [Pelitinib, reference compound]	3.42 µM	2.08 µM	2.57 µM	0.512 µM	0.48 µM	0.0784 µM	0.037 µM	3.91 µM	2.48 µM	0.325 µM	0.0591 µM	2.75 µM	1.7 µM	0.899 µM					
	CC(=O)O[C@H]1C(=O)[C@@]2(C)[C@H]([C@H](OC(=O)c3ccccc3)[C@]3(O)C[C@H](OC(=O)[C@H](O)[C@@H](NC(=O)c4ccccc4)c4ccccc4)C(C)=C1C3(C)C)[C@]1(OC(C)=O)CO[C@@H]1C[C@@H]2O [taxol, reference compound]																		more spread-out morphology	
	CC[C@]1(O)C[C@H]2CN(CCc3c([nH]c4ccccc34)[C@@](C(=O)OC)(c3cc4c(cc3OC)N(C=O)[C@H]3[C@@](O)(C(=O)OC)[C@H](OC(C)=O)[C@]5(CC)C=CCN6CC[C@]43[C@@H]65)C2)C1 [vincristine, reference compound]																		rounded shape	typical response of microtubule destabilizing agents
